{"source": "patent US11192900B2", "about": "“Substituted 1,6-dihydropyridinones and 1,2-dihydroisoquinolinones as bet inhibitors” (NUVATION BIO INC., priority 2018, dated 2021)", "key": {"BRD3-2": {"target": "BRD3-2 (Homo sapiens (Human), UniProt Q15059)", "sequence (Q15059 306-415)": "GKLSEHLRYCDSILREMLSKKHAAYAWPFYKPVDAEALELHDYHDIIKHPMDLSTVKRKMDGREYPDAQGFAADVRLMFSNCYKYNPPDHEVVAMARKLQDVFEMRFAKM", "assay": "Bromodomain and Extraterminal Domain (BET) Binding Assay", "procedure,_shortened": "(§1)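 AlphaScreen displacement of biotinylated H4 (1-21) K5/8/12/16Ac peptide, in 50 mM HEPES pH 7.5, 100 mM NaCl, 1 mg/ml BSA, 0.05% CHAPS, 0.5% DMSO. Protein-compound preincubation 30 min RT, then ligand 30 min, donor then acceptor beads 60 min dark. Inhibition versus plate controls; IC50 from 10-point titrations.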"}, "BRD2-2": {"target": "BRD2-2 (Homo sapiens (Human), UniProt P25440)", "sequence (P25440 344-453)": "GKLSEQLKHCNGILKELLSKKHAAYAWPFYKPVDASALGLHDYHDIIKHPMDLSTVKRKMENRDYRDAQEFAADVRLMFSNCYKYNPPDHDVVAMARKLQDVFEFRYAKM", "assay": "Bromodomain and Extraterminal Domain (BET) Binding Assay", "procedure,_shortened": "as §1"}, "BRD2-1": {"target": "BRD2-1 (Homo sapiens (Human), UniProt P25440)", "sequence (P25440 74-180)": "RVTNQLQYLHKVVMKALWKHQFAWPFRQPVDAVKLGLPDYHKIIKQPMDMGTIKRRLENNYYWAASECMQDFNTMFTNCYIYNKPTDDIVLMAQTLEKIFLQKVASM", "assay": "Bromodomain and Extraterminal Domain (BET) Binding Assay", "procedure,_shortened": "as §1"}, "BRD4-2": {"target": "BRD4-2 (Homo sapiens (Human), UniProt O60885)", "assay": "Bromodomain and Extraterminal Domain (BET) Binding Assay", "procedure,_shortened": "as §1"}, "BRD3-1": {"target": "BRD3-1 (Homo sapiens (Human), UniProt Q15059)", "sequence (Q15059 34-140)": "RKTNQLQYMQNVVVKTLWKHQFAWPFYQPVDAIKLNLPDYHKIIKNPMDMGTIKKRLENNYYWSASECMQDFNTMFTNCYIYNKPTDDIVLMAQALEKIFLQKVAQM", "assay": "Bromodomain and Extraterminal Domain (BET) Binding Assay", "procedure,_shortened": "as §1"}, "BRDT-1": {"target": "BRDT-1 (Homo sapiens (Human), UniProt Q58F21)", "assay": "Bromodomain and Extraterminal Domain (BET) Binding Assay", "procedure,_shortened": "as §1"}, "BRD4-1": {"target": "BRD4-1 (Homo sapiens (Human), UniProt O60885)", "assay": "Bromodomain and Extraterminal Domain (BET) Binding Assay", "procedure,_shortened": "as §1"}, "SU-DHL6": {"system": "SU-DHL6", "assay": "Cell viability in AML and DLBCL cell lines (Cell Titer-Glo)", "assay_type": "cell-based", "conditions": "Homo sapiens, SU-DHL-6, 72 hr", "experimental": "(§2) A panel of AML and DLBCL cell lines was profiled for effects of compound 3 on cell viability. Cells were seeded at a count of 3000-8000 cells per well/40 μl in a 384-well plate and incubated at 37° C., 5% CO2 overnight. Cells were treated with test compounds at 10 concentrations within a desired concentration range (e.g. 0.5 nM-10 μM) for generation of dose response curves by preparing serial dilutions of the test compound in DMSO which were further diluted with culture medium and then added in a volume of […] to each well. Cells were cultured in the presence of inhibitors at various concentrations for 72 hr. The assay was terminated by addition of […] Cell Titer-Glo reagent (Promega, Madison, Wis.) to each well. Contents were mixed, the plate was incubated for 10 min at room temperature and luminescence was measured. The IC50 value of each test compound was calculated with XLFit curve fitting software."}, "OCI-AML3": {"system": "OCI-AML3", "assay": "Cell viability in AML and DLBCL cell lines (Cell Titer-Glo)", "assay_type": "cell-based", "conditions": "Homo sapiens, OCI-AML-3, 72 hr", "experimental": "as §2"}, "SU-DHL4": {"system": "SU-DHL4", "assay": "Cell viability in AML and DLBCL cell lines (Cell Titer-Glo)", "assay_type": "cell-based", "conditions": "Homo sapiens, SU-DHL-4, 72 hr", "experimental": "as §2"}, "NOMO-1": {"system": "NOMO-1", "assay": "Cell viability in AML and DLBCL cell lines (Cell Titer-Glo)", "assay_type": "cell-based", "conditions": "Homo sapiens; NOMO-1, Cell Titer-Glo, 72 hr", "experimental": "as §2"}, "RS4; 11": {"system": "RS4; 11", "assay": "Cell viability in AML and DLBCL cell lines (Cell Titer-Glo)", "assay_type": "cell-based", "conditions": "Homo sapiens, 11, Cell Titer-Glo, 72 hr", "experimental": "as §2"}, "KOPN-8": {"system": "KOPN-8", "assay": "Cell viability in AML and DLBCL cell lines (Cell Titer-Glo)", "assay_type": "cell-based", "conditions": "Homo sapiens; KOPN-8, Cell Titer-Glo, 72 hr", "experimental": "as §2"}, "WSU-DLCL2": {"system": "WSU-DLCL2", "assay": "Cell viability in AML and DLBCL cell lines (Cell Titer-Glo)", "assay_type": "cell-based", "conditions": "Homo sapiens, WSUDLCL2, 72 hr", "experimental": "as §2"}, "KG-1a": {"system": "KG-1a", "assay": "Cell viability in AML and DLBCL cell lines (Cell Titer-Glo)", "assay_type": "cell-based", "conditions": "Homo sapiens, 72 hr", "experimental": "as §2"}, "[1]": {"system": "IEC-6 rat intestinal epithelial cell line", "assay": "IEC-6 cell viability, Protocol B (toxicity to non-cancerous cells)", "assay_type": "cell-based", "conditions": "Rattus norvegicus; IEC-6, 4000 cells per well, 48 hrs", "experimental": "The effects of test compounds were also studied in the IEC-6 rat intestinal epithelial cell line to assess potential toxicity to non-cancerous cells. The cells were harvested during the logarithmic growth period and counted. In Protocol A, cells were seeded at a count of 3000 cells per well/100 μl in a 96-well plate. After seeding, cells were incubated at 37° C., 5% CO2 for 24 hr. Cells were treated with test compounds at 8 concentrations within a desired concentration range (e.g. 5 nM-10 μM) for generation of dose response curves by preparing serial dilutions of the test compound in DMSO which were further diluted with culture medium and then added to each well. The plate was further incubated for another 96 hrs in humidified incubator at 37° C. and 5% CO2. The assay was terminated by addition of resazurin (# R7017, Sigma). The plate was incubated for 4 hr at 37° C., 5% CO2 and fluorescence was measured using excitation and emission wavelengths of 535 and 590 nm, respectively. Cell viability data were plotted using GraphPad Prism (GraphPad Software, Inc., San Diego, Calif.). In addition, a nonlinear regression model with a sigmoidal dose response and variable slope within GraphPad Prism was used to calculate the IC50 value of individual test compounds. Protocol B was the same as Protocol A except that cells were seeded at a count of 4000 cells per well/100 μl in a 96-well plate, and the incubation with test compound was for 48 hrs instead of 96 hrs."}, "MV4-11 cells": {"system": "MV4-11 cells", "assay": "Cell viability assay after wash-off (FITC-annexin V / 7-AAD flow cytometry)", "assay_type": "cell-based, human", "conditions": "MV4-11, 0.5 or 2 μM for 2 or 4 hr, total 48 hr", "experimental": "MV4-11 cells were incubated with compound (at a concentration of 0.5 or 2 μM) or mivebresib (at a concentration of 0.5 or 2 μM) for 2 or 4 hr before wash-off with culture medium and re-plated in fresh culture medium for a total of 48 hr. Cells were stained with FITC-annexin V and 7-AAD before flow cytometric analysis using a Stratedigm flow cytometer. Viable cells are negative for FITC-annexin V and 7-AAD."}}, "note": "Read-outs that look alike come from different tables or passages of the source."}
{"smiles": "C=CS(=O)(=O)Nc1ccc(Oc2ccc(F)cc2F)c(-c2cc(NC)c(=O)n(C)c2)c1", "note": "[Compound 3, N-(4-(2,4-difluorophenoxy)-3-(1-methyl-5-(methylamino)-6-oxo-1,6-dihydropyridin-3-yl)phenyl)ethenesulfonamide]", "values": [{"measurement": "IC50", "setting": "BRD3-2", "value": 29, "unit": "nM"}, {"measurement": "IC50", "setting": "BRD2-2", "value": 12, "unit": "nM"}, {"measurement": "IC50", "setting": "BRD2-1", "value": 16, "unit": "nM"}, {"measurement": "IC50", "setting": "BRD4-2; Table 2, read-out: BET IC50 BRD4-2", "value": 21, "unit": "nM"}, {"measurement": "IC50", "setting": "BRD4-2; Table 3, read-out: BRD4-2 IC50", "value": 21, "unit": "nM"}, {"measurement": "IC50", "setting": "BRD3-1", "value": 35, "unit": "nM"}, {"measurement": "IC50", "setting": "BRDT-1", "value": 31, "unit": "nM"}, {"measurement": "IC50", "setting": "BRD4-1; Table 2, read-out: BET IC50 BRD4-1", "value": 24, "unit": "nM"}, {"measurement": "IC50", "setting": "BRD4-1; Table 3, read-out: BRD4-1 IC50", "value": 24, "unit": "nM"}, {"measurement": "IC50", "setting": "SU-DHL6", "value": 47, "unit": "nM"}, {"measurement": "IC50", "setting": "OCI-AML3", "value": 50, "unit": "nM"}, {"measurement": "IC50", "setting": "SU-DHL4", "value": 22, "unit": "nM"}, {"measurement": "IC50", "setting": "NOMO-1", "value": 205, "unit": "nM"}, {"measurement": "IC50", "setting": "RS4; 11", "value": 128, "unit": "nM"}, {"measurement": "IC50", "setting": "KOPN-8", "value": 9, "unit": "nM"}, {"measurement": "IC50", "setting": "WSU-DLCL2", "value": 84, "unit": "nM"}, {"measurement": "IC50", "setting": "KG-1a", "value": 285, "unit": "nM"}, {"measurement": "IC50", "setting": "[1]", "value": 173, "unit": "nM"}, {"measurement": "cell inhibition activity after transient exposure (viable cells after wash-off)", "setting": "MV4-11 cells", "value": "sustained cell inhibition activity"}]}
